Data published in publication PMC8958505, “Discovery of Potential Neuroprotective Agents against Paclitaxel-Induced Peripheral Neuropathy” (Journal of Medicinal Chemistry, 2022).

Assays:
[1] = system: primary cortical neurons; assay: Synaptogenesis assay of primary cortical neurons (image-based HCS) against paclitaxel-induced neurotoxicity; type: cell-based, mouse; details: for activity at 0.01 µM / activity at 1 µM: Mus musculus, Primary cortical neuron; for activity at 0.01 µM: read-out: A: Synaptogenesis (% of control) of test compound (10 nM) + paclitaxel (1 μM); for activity at 1 µM: read-out: B: Synaptogenesis (% of control) of test compound (1000 nM) + paclitaxel (1 μM); for attenuation of synaptogenesis inhibited by paclitaxel (in words): test compound 10 and 1000 nM prior to paclitaxel 1 μM, Figure 1A
Description: (§1) Herein, we wish to report that an in vitro neurite outgrowth assay of cortical neurons integrated with an image-based high-content screening (HCS) platform is used to evaluate a commercially available library of 78 minoxidil-related derivatives,[22] leading to the identification of a series of analogues able to prevent or alleviate paclitaxel-induced neurotoxicity. The project began with screening compounds with the primary culture of cortical neurons from neonatal mice. More specifically, cerebral cortex neurons cultured from P0 C57BL/6J mouse pups were incubated with a test compound (10 and 1000 nM) prior to paclitaxel (1 μM) treatment. Subsequently, both neurite outgrowth and synaptogenesis were measured to evaluate the test compounds’ neuroprotective capacity. […] This unique feature is preserved for the core-structure screening of our in-house library in the following subject. Moreover, the substituent at the C4 position appears flexible in terms of structural diversity. Collectively, CSV0A024807, the only one displaying the best neuroprotective potency on both neurite outgrowth and synaptogenesis assays, was thus elected as a potential hit compound for further development.
(§2) Primary cortical or DRG cells were fixed with 4% paraformaldehyde for 15 min following compound and paclitaxel treatment. After washing with PBS, the fixed cells were permeabilized with PBS containing 0.05% Triton X-100 for 20 min and then blocked with commercial blocking buffer (#GTX30963; GeneTex, USA) at room temperature for 1 h. Subsequently, the cortical cells were stained for the extending processes and synaptic puncta by using anti-MAP2 (#MBS502140, 1:500; Mybiosource, USA) and anti-synaptophysin (#ab32127, 1:500; Abcam, UK) overnight. DRG cells were stained for the neurite and neuron nucleus by using anti-β III tubulin (#D71G9, 1:600; Cell Signaling, USA) and anti-NeuN monoclonal antibody (#MAB377, 1:400; Millipore, USA) overnight. On the second day, the samples were washed for 30 min with wash buffer and incubated with secondary antibodies (Alexa-488, 647 1:600; Thermo Fisher, USA) and 4 μg/mL Hoechst 33258 (#94403-1ML, 1:100; Merck, USA) at room temperature for 1 h. In the initial experiments of screening the potential neuroprotective compound for CIPN, ImageXpress^Micro (IXM) high-content imaging system (Molecular Devices, USA) driven by MetaXpress software was used. Images of treated cells were automatically acquired by using a 10× objective. Twenty-one images per well were taken in each of three channels (DAPI, FITC, and Cy5) to create a whole view of the entire neural network. The integrity of the neural network was evaluated using TIF images by importing them into MetaXpress software for analysis using the module for multiparameter, such as Neurite Outgrowth, Cell Scoring, and Transfluor. Furthermore, the score of synaptogenesis was analyzed in AcuityXpress software (Molecular Devices, USA).

[2] = system: primary cortical neurons; assay: Neurite outgrowth assay of primary cortical neurons (image-based HCS) against paclitaxel-induced neurotoxicity; type: cell-based, mouse; details: for activity at 0.01 µM / activity at 1 µM: Mus musculus, Primary cortical neuron; for activity at 0.01 µM: read-out: C: Neurite outgrowth (% of control) of test compound (10 nM) + paclitaxel (1 μM); for activity at 1 µM: read-out: D: Neurite outgrowth (% of control) of test compound (1000 nM) + paclitaxel (1 μM)
Description: as §1, §2

[3] = test compound 10 nM + paclitaxel 1 μM, mean ± SE
[4] = test compound 1000 nM + paclitaxel 1 μM, mean ± SE

Row | SMILES | activity at 0.01 µM [1, 3] [%] | activity at 1 µM [1, 4] [%] | activity at 0.01 µM [2, 3] [%] | activity at 1 µM [2, 4] [%] | further results
1 | CC(C)(C)c1ccc(C(=O)NNc2cc(N3CCOCC3)nc(N3CCOCC3)n2)cc1 [CSV0B026196] | 36 ± 2 | 32 ± 1 | 83 ± 5 | 65 ± 4 | 
2 | CN(C)c1cc(N/N=C/c2cc3c(c([N+](=O)[O-])c2)OCO3)nc(N(C)C)n1 [CSV0A047583] | 66 ± 4 | 69 ± 5 | 63 ± 3 | 61 ± 3 | 
3 | COc1ccc(/C=N/Nc2cc(N(C)C)nc(N(C)C)n2)cc1 [CSV0A034004] | 65 ± 6 | 76 ± 2 | 54 ± 7 | 55 ± 4 | 
4 | Oc1ccccc1/C=N/Nc1cc(N2CCOCC2)nc(N2CCOCC2)n1 [CSV0B002764] | 48 ± 5 | 47 ± 3 | 66 ± 6 | 67 ± 4 | 
5 | CCN(CC)c1cc(NNC(=O)c2ccccc2OC)nc(N(CC)CC)n1 [CSV0A008237] | 45 ± 4 | 45 ± 8 | 56 ± 1 | 50 ± 9 | 
6 | O=C(CCc1ccccc1)NNc1cc(N2CCCCC2)nc(N2CCCCC2)n1 [CSV0A062711] |  |  |  |  | activity at 0.01 µM [1]: 36 ± 0.5%; activity at 1 µM [1]: 28 ± 3%; activity at 0.01 µM [2]: 80 ± 11%; activity at 1 µM [2]: 79 ± 6%
7 | COc1cc(/C=N/Nc2cc(N3CCOCC3)nc(N3CCOCC3)n2)ccc1O [CSV0B002704] | 38 ± 2 | 29 ± 6 | 79 ± 7 | 65 ± 3 | 
8 | C(=N\Nc1cc(N2CCOCC2)nc(N2CCOCC2)n1)/c1ccncc1 [CSV0A024809] | 38 ± 3 | 27 ± 0.5 | 77 ± 2 | 82 ± 3 | 
9 | C(=N\Nc1cc(N2CCCCCC2)nc(N2CCCCCC2)n1)/c1ccncc1 [CSV0A061667] | 40 ± 6 | 41 ± 7 | 82 ± 6 | 82 ± 6 | 
10 | Oc1cccc(/C=N/Nc2cc(N3CCCCC3)nc(N3CCCCC3)n2)c1 [CSV0B001120] | 43 ± 5 | 41 ± 5 | 95 ± 9 | 82 ± 2 | 
11 | Clc1ccc(/C=N/Nc2cc(N3CCCCCC3)nc(N3CCCCCC3)n2)cc1 [CSV0A027457] | 51 ± 4 | 39 ± 4 | 62 ± 4 | 51 ± 4 | 
12 | CCN(CC)c1cc(N/N=C/c2ccccc2OC)nc(N(CC)CC)n1 [CSV0A007655] | 39 ± 4 | 41 ± 2 | 45 ± 7 | 51 ± 3 | 
13 | O=[N+]([O-])c1ccc(/C=N/Nc2cc(N3CCCCC3)nc(N3CCCCC3)n2)cc1 [CSV0A011998] | 75 ± 1 | 55 ± 2 | 77 ± 5 | 61 ± 6 | 
14 | O=[N+]([O-])c1cc(/C=N/Nc2cc(N3CCCCCC3)nc(N3CCCCCC3)n2)cc2c1OCO2 [CSV0A024811] | 52 ± 1 | 46 ± 4 | 69 ± 7 | 60 ± 3 | 
15 | O=[N+]([O-])c1cccc(/C=N/Nc2cc(N3CCOCC3)nc(N3CCOCC3)n2)c1 [CSV0A024807] | 92 ± 2 | 97 ± 2 | 69 ± 3 | 60 ± 1 | attenuation of synaptogenesis inhibited by paclitaxel (in words) [1]: significantly attenuated; rescue of neuronal damage caused by paclitaxel (immunofluorescence images) ([2]; pretreated, primary cortical neuron culture, Figure 1B): significantly rescued; protective effect in the neurite outgrowth assay (in words) ([2]; test compound 10 and 1000 nM prior to paclitaxel 1 μM, Figure 1A): significant protective effect
16 | CCN(CC)c1cc(NNC(=O)CCc2ccccc2)nc(N(CC)CC)n1 [CSV0B009488] | 38 ± 3 | 34 ± 3 | 35 ± 4 | 44 ± 3 | 

Row | SMILES | activity at 0.01 µM [1, 3] [%] | activity at 1 µM [1, 4] [%] | activity at 0.01 µM [2, 3] [%] | activity at 1 µM [2, 4] [%] | further results
17 | CN(C)c1cc(N/N=C/c2ccccc2O)nc(N(C)C)n1 [CSV0A034003] |  |  |  |  | A: Synaptogenesis (% of control) of test compound (10 nM) + paclitaxel (1 μM) [1, 3]: 67±5 % of control; B: Synaptogenesis (% of control) of test compound (1000 nM) + paclitaxel (1 μM) [1, 4]: 66±9 % of control; C: Neurite outgrowth (% of control) of test compound (10 nM) + paclitaxel (1 μM) [2, 3]: 61±3 % of control; D: Neurite outgrowth (% of control) of test compound (1000 nM) + paclitaxel (1 μM) [2, 4]: 62±3 % of control
18 | CCN(CC)c1cc(NNC(=O)c2ccc(C(C)(C)C)cc2)nc(N(CC)CC)n1 [CSV0B008884] | 35 ± 3 | 37 ± 3 | 41 ± 3 | 41 ± 4 | 
19 | CCOc1ccc(Nc2nc(/N=C/c3c(OC)c(C(=O)Nc4ccccc4C)cc4ccccc34)c([N+](=O)[O-])c(NCc3ccccc3)n2)cc1 [CSVOD047961] | 30 ± 3 | 36 ± 1 | 90 ± 2 | 95 ± 2 | 
20 | O=[N+]([O-])c1ccc(/C=N/Nc2cc(N3CCOCC3)nc(N3CCOCC3)n2)cc1 [CSV0A024806] |  |  |  |  | A: Synaptogenesis (% of control) of test compound (10 nM) + paclitaxel (1 μM) [1, 3]: 68±6 % of control; B: Synaptogenesis (% of control) of test compound (1000 nM) + paclitaxel (1 μM) [1, 4]: 78±5 % of control; C: Neurite outgrowth (% of control) of test compound (10 nM) + paclitaxel (1 μM) [2, 3]: 70±3 % of control; D: Neurite outgrowth (% of control) of test compound (1000 nM) + paclitaxel (1 μM) [2, 4]: 68±6 % of control
21 | Cc1ccc(S)c(Nc2cc(N)nc(N)n2)n1 [CSV0A0544S0] | 63 ± 5 | 52 ± 8 | 60 ± 2 | 57 ± 5 | 
22 | CCN(CC)c1ccc(/C=N/Nc2cc(N3CCOCC3)nc(N3CCOCC3)n2)cc1 [CSV0A024804] | 67 ± 8 | 62 ± 3 | 68 ± 2 | 66 ± 1 | 
23 | CC(C)(C)c1ccc(C(=O)NNc2cc(N3CCCCC3)nc(N3CCCCC3)n2)cc1 [CSV0B001160] | 51 ± 5 | 41 ± 1 | 89 ± 7 | 80 ± 5 | 
24 | Clc1ccc(/C=N/Nc2cc(N3CCCC3)nc(N3CCCC3)n2)cc1 [CSV0A024814] | 46 ± 1 | 31 ± 1 | 81 ± 0.005 | 67 ± 2 | 
25 | O=[N+]([O-])c1ccc(/C=N/Nc2cc(N3CCCC3)nc(N3CCCC3)n2)cc1 [CSV0A024812] | 55 ± 6 | 62 ± 3 | 53 ± 3 | 60 ± 1 | 
26 | Oc1ccc(Cl)cc1/C=N/Nc1cc(N2CCCC2)nc(N2CCCC2)n1 [CSV0A041619] |  |  |  |  | activity at 0.01 µM [1]: 54 ± 0.03%; activity at 1 µM [1]: 62 ± 2%; activity at 0.01 µM [2]: 62 ± 2%; activity at 1 µM [2]: 61 ± 2%
27 | CN(C)c1cc(N/N=C/c2ccc(Cl)cc2)nc(N(C)C)n1 [CSV0A027459] | 35 ± 1 | 37 ± 2 | 76 ± 7 | 79 ± 11 | 
28 | CN(C)c1cc(NNC(=O)c2ccccc2O)nc(N(C)C)n1 [CSV0A2327S0] | 42 ± 2 | 41 ± 5 | 55 ± 1 | 53 ± 5 | 
29 | CN(C)c1cc(NNC(=O)CCc2ccccc2)nc(N(C)C)n1 [CSV0B008273] |  |  |  |  | activity at 0.01 µM [1]: 39 ± 2%; activity at 1 µM [1]: 36 ± 2%; activity at 0.01 µM [2]: 46 ± 3%; activity at 1 µM [2]: 53 ± 2%
30 | COc1ccc(/C=N/Nc2cc(N3CCCC3)nc(N3CCCC3)n2)cc1 [CSV0A024813] | 98 ± 4 | 81 ± 5 | 66 ± 2 | 63 ± 2 | attenuation of synaptogenesis inhibited by paclitaxel (in words) [1]: significantly attenuated
31 | O=C(CCc1ccccc1)NNc1cc(N2CCCC2)nc(N2CCCC2)n1 [CSV0C019163] |  |  |  |  | activity at 0.01 µM [1]: 49 ± 4%; activity at 1 µM [1]: 53 ± 1%; activity at 0.01 µM [2]: 68 ± 7%; activity at 1 µM [2]: 74 ± 1%
